2 compounds from US9363996B2, “Compositions and method for blocking ethylene response in field crops using 3-(cy-clopropyl-l-enyl)-propanoic salt” (Yissum Research Development Company of the Hebrew …, priority 2009, dated 2016) can be followed below.

For experiment [1], the system named is young cotton leaf explants. Kind of experiment: Ethylene-induced petiole abscission of young cotton leaf explants. The conditions noted are these: ethylene alone. Format: in vivo, cotton (Gossyium hirsutum barbadense L.). On the procedure:
(§1) (1) Abscission—This is a very sensitive model system for studying the effects of plant hormones. Ethylene induces the process of abscission, while auxin delays it. In the laboratory the experimental system is based on plant organ explants, which include the abscission zone. Abscission is induced by exposure to ethylene and at the termination of the experiment the number of abscised organs, usually either leaf blades or petioles are counted and the fraction of abscission is calculated. In the case of fruit, the decrease in fruit retention force is analyzed. In cotton, when WS-CPD (the ethylene-action antagonist herein disclosed) is tested, the whole plants or explants are pretreated by spraying with the antagonist, dissolved in a phosphate buffer solution (10-20 mM, pH 7.0) including 0.1% commercially available Kinetic™ as surfactant, and left to incubate for a predetermined time, usually between 6 and 24 h. The plants or explants are then further exposed for 24 h to ethylene gas (5 to 20 μL L^−1). The plants or explants are then ventilated and incubated for the required time under controlled conditions. At the end of the experiment the percentage of abscission is determined. (2) Chlorophyll degradation—This is a standard model for studying senescence. Plant material (whole plants, excised leaves or leaf discs) are pretreated. In cotton, tobacco and wheat, when WS-CPD is tested, the whole plants or explants are pretreated by spraying with the antagonist, dissolved in phosphate buffer solution (10-20 mM, pH 7.0) including 0.1% commercially available Kinetic™ surfactant, and left to incubate for a predetermined time, usually between 6 and 241. […] At the end of the experiment a dimethylsulfoxide (DMSO) extract of the plant tissue is prepared, and the chlorophyll content of the extract is determined by spectrophotometric analysis. […] The extent of ethylene-induced epinasty of leaves is determined by measuring the change of the angle between the petiole and the stem shoot or blade. […]

Experiment [2] has as its system tobacco seedlings. Description: Ethylene-induced chlorophyll degradation in tobacco seedling leaves. The experiment is classed as in vivo, tobacco (Nicotiana tabacum var. 'Samsun'). The conditions noted are these: ethylene alone. On the procedure:
(§2) (1) Abscission—This is a very sensitive model system for studying the effects of plant hormones. Ethylene induces the process of abscission, while auxin delays it. In the laboratory the experimental system is based on plant organ explants, which include the abscission zone. Abscission is induced by exposure to ethylene and at the termination of the experiment the number of abscised organs, usually either leaf blades or petioles are counted and the fraction of abscission is calculated. In the case of fruit, the decrease in fruit retention force is analyzed. In cotton, when WS-CPD (the ethylene-action antagonist herein disclosed) is tested, the whole plants or explants are pretreated by spraying with the antagonist, dissolved in a phosphate buffer solution (10-20 mM, pH 7.0) including 0.1% commercially available Kinetic™ as surfactant, and left to incubate for a predetermined time, usually between 6 and 24 h. The plants or explants are then further exposed for 24 h to ethylene gas (5 to 20 μL L^−1). The plants or explants are then ventilated and incubated for the required time under controlled conditions. At the end of the experiment the percentage of abscission is determined. (2) Chlorophyll degradation—This is a standard model for studying senescence. Plant material (whole plants, excised leaves or leaf discs) are pretreated. In cotton, tobacco and wheat, when WS-CPD is tested, the whole plants or explants are pretreated by spraying with the antagonist, dissolved in phosphate buffer solution (10-20 mM, pH 7.0) including 0.1% commercially available Kinetic™ surfactant, and left to incubate for a predetermined time, usually between 6 and 241. The plants or explants are then further exposed for 24 h to ethylene gas (1 to 100 μL L^−1), or sprayed with Ethephon™ (wheat; 250 to 750 μL L^−1). The plants or explants are then ventilated and incubated for the required time under controlled conditions. At the end of the experiment a dimethylsulfoxide (DMSO) extract of the plant tissue is prepared, and the chlorophyll content of the extract is determined by spectrophotometric analysis. The chlorophyll content is reported either on a fresh, dry weight basis, or on a surface area basis. (3) Epinasty—This is also one of the classical methods for studying ethylene effects in plants. The extent of ethylene-induced epinasty of leaves is determined by measuring the change of the angle between the petiole and the stem shoot or blade. After exposure of the intact plant to ethylene, the upright grown leaves bend downward. The increase in the angle values (degrees) between petiole and the stem is used as a measure of the effect of the ethylene. […]

Experiment [3] has as its system wheat seedlings. Kind of experiment: Third leaf growth of young wheat seedlings exposed to ethylene. The experiment is classed as in vivo, wheat (Triticum turgidum var. 'Gdera'). The conditions noted are these: for inhibition of growth of the third leaf: additional experiment.
Experiment [4] has as its system wheat plants. Kind of experiment: Wheat grain weight at the milky stages after Ethephon treatment. The experiment is classed as in vivo, wheat (Triticum turgidum var. 'Gdera'). The conditions noted are these: Ethephon 750 μL L^−1, sandy soil. On the procedure: as §2, with “ethylene. When WS-CPD is tested on cotton and wheat plants, the whole plants are pretreated by spraying with the antagonist dissolved in phosphate buffer solution (10-20 mM, pH 7.6) including 0.1% Kinetic™ as surfactant, and left to incubate for a predetermined time, usually between 6 and 24 h. The plants are then further exposed for 24 h to ethylene gas (cotton, 5 to 10 μL L^−1), or sprayed with Ethephon™ (wheat, 250 to 750 μL L^−1). The plants are then ventilated and incubated for the required time under controlled conditions. The epinastic effect is expressed by measuring the degree values of the downward curvature between the blade and petiole (cotton, FIGS. 1-3) or between the blade and the stem (wheat, FIGS. 31 and 32). (4) Wheat Grain yield—This is a common test of the effects of exposure of monocot plants either to environmental stresses such as drought that induce senescence by increasing endogenous ethylene production. Excessive internal or external ethylene will accelerate senescence which will lead to reduced grain yield. In this project the intact plants were grown in the greenhouse up to the spike hading at milky stage I and II. The plants were then sprayed with the dissolved WS-CPD in phosphate buffer solution (10 mM, pH 7.6) including 0.1% Kinetic™ as surfactant. Young Cotton Seedlings” for “ethylene.”

The test system of experiment [5] is wheat plants. Kind of experiment: Ethephon-induced chlorophyll degradation in wheat leaves, glumes and chaffs. The conditions noted are these: for reduction of chlorophyll content: chaffes; for reduction of chlorophyll content / reduction in chlorophyll content: milky stage I; for decrease of chlorophyll content: Ethephon 250 and 750 μL L^−1 at milky stage I, after 5-6 days; for reduction in chlorophyll content: glumes. Format: in vivo, wheat (Triticum turgidum var. 'Gdera'). On the procedure:
as §2, with “ethylene. When WS-CPD is tested on cotton and wheat plants, the whole plants are pretreated by spraying with the antagonist dissolved in phosphate buffer solution (10-20 mM, pH 7.6) including 0.1% Kinetic™ as surfactant, and left to incubate for a predetermined time, usually between 6 and 24 h. The plants are then further exposed for 24 h to ethylene gas (cotton, 5 to 10 μL L^−1), or sprayed with Ethephon™ (wheat, 250 to 750 μL L^−1). The plants are then ventilated and incubated for the required time under controlled conditions. The epinastic effect is expressed by measuring the degree values of the downward curvature between the blade and petiole (cotton, FIGS. 1-3) or between the blade and the stem (wheat, FIGS. 31 and 32). (4) Wheat Grain yield—This is a common test of the effects of exposure of monocot plants either to environmental stresses such as drought that induce senescence by increasing endogenous ethylene production. Excessive internal or external ethylene will accelerate senescence which will lead to reduced grain yield. In this project the intact plants were grown in the greenhouse up to the spike hading at milky stage I and II. The plants were then sprayed with the dissolved WS-CPD in phosphate buffer solution (10 mM, pH 7.6) including 0.1% Kinetic™ as surfactant. Young Cotton Seedlings” for “ethylene.”

Experiment [6] has as its system wheat plants. Kind of experiment: Ethephon-induced flag leaf epinasty of wheat plants after spike heading. The conditions noted are these: Ethephon 750 μL L^−1 spray alone. The experiment is classed as in vivo, wheat (Triticum turgidum var. 'Gdera'). On the procedure:
as §1, with “The plants or explants are then further exposed for 24 h to ethylene gas (5 to 20 μL L^−1). The plants or explants are then ventilated and incubated for the required time under controlled conditions.” left out, “determined.” for “determined. (2) Chlorophyll degradation—This is a standard model for studying senescence. Plant material (whole plants, excised leaves or leaf discs) are pretreated. In cotton, tobacco and wheat, when WS-CPD is tested, the whole plants or explants are pretreated by spraying with the antagonist, dissolved in phosphate buffer solution (10-20 mM, pH 7.0) including 0.1% commercially available Kinetic™ surfactant, and left to incubate for a predetermined time, usually between 6 and 241.”

Take `C=C` [ethylene]: in experiment [1], the “rate of petiole abscission” value is recorded as “accelerated”. Also, the “reduction of chlorophyll content” value in experiment [2] (mature (lower) leaves) is 72%. Moreover, in experiment [2] (young (upper) leaves), the “decrease in chlorophyll content as compared with air-treated leaves” value was 17%. The “inhibition of growth of the third leaf” value in experiment [3] (ethylene 1.6 μL L^−1) was determined as 20%; in experiment [3] (ethylene 20 μL L^−1) it was 35%. For the same compound, the “length of the third leaf longer than air-control leaf” value in experiment [3] (ethylene 1 μL L^−1, continuous exposure) is listed as 50%. Also, the “inhibition of growth of the third leaf compared to air control” value in experiment [3] (ethylene 10 μL L^−1) is 50%; in experiment [3] (ethylene 100 μL L^−1) it was 30%.

Regarding `O=P(O)(O)CCCl` [Ethephon, reference compound], the figures for the “reduction of grain weight” value in experiment [4] (stage I) and in experiment [4] (stage II) were 4% and 18%, respectively. In addition, the “reduction of chlorophyll content” value in experiment [5] (Ethephon 250 μL L^−1) is listed as 33%; in experiment [5] (Ethephon 750 μL L^−1), 28%. Further, the “decrease of chlorophyll content” value in experiment [5] (flag leaf) was 16-21%; in experiment [5] (leaf II) it was 21-22%. Further, the “reduction of the content of chlorophyll” value in experiment [5] (flag leaf, Ethephon 750 μL L^−1, milky stage II) is 33%; in experiment [5] (leaf II, Ethephon 750 μL L^−1, milky stage II) it was 47%. In experiment [5] (glumes and chaffs, Ethephon 750 μL L^−1, milky stage II), the “chlorophyll lower compared with the untreated control spikes” value stood at 12%. The “reduction in chlorophyll content” value in experiment [5] (Ethephon 250 μL L^−1) is reported as 10%; in experiment [5] (Ethephon 750 μL L^−1) it was 40%. For the same compound, in experiment [6], the flag leaf epinasty entry is reported as “strong leaf epinasty”.
